The values that follow come from patent US20160319277A1, “METHODS OF IMPROVED PROTEIN PRODUCTION USING MIRNAs AND SIRNAs” (THE JOHNS HOPKINS UNIVERSITY, priority 2015, published 2016).

This series deals with HEK-CMV-Luc2-Hygro cells. The experiment in a line: High-throughput genome-wide siRNA screen and validation screen for luciferase expression. The format is cell-based, human. The following applies: for Viable cell density (%) / per cell luciferase yield (%): Table 4, negative control = 100%; for Viable cell density (%) / per cell luciferase yield (%) / per_cell / VIA: primary screen, 72 h; for per_cell / VIA: Table 3; for per_cell: per cell luciferase yield relative to negative control; for VIA: viable cell density as % of negative control; for Luciferase activity (%) / Per cell luciferase yield (%) / Viable cell number (%): Table 6, polyamine pathway gene siRNAs. The method, then: The Silencer Select™ Human genome siRNA library (Ambion), which targets 21,585 human genes with 3 siRNAs per gene, was used for screening. Each siRNA is arrayed in an individual well (Corning 3570, 384 well, white, solid bottom plates). The transfection was done in duplicates: 0.8 pmol of each siRNA was spotted to a well of a 384-well plate (Corning) and 20 μL of serum-free DMEM containing 0.07 μL of Lipofectamine™ RNAiMax (Life Technologies) was then added to each well. This lipid-siRNA mixture was incubated at ambient temperature for 30 min prior to addition of 4000 cells in 20 μL of DMEM containing 20% FBS (Gibco). After incubating the transfected cells at 37° C. in 5% CO2 for 72 hours, 20 μL of ONE-Glo™ Reagent (Promega) was added to one set of replicates for ‘overall luciferase yield’ quantification and 20 μL of CellTiter-Glo™ Reagent (Promega) was added to the second set of replicates for ‘viable cell density’ measurement. All plates were incubated at room temperature for 20 minutes to stabilize the luminescent signal and the signal was then measured with PerkinElmer Envision 2104 Multilabel™ plate reader.
The 56 genes which got targeted by at least two independent siRNAs (out of three) resulting in enhanced luciferase production with MAD-based z-score>3 from the primary screen were subjected to validation screen using 3 additional Silencer™ siRNAs (Ambion) with different sequences from those used in the primary screen. […] The transfection and assay processes were-the same as the primary genome-wide screen. Data visualization was performed in R computational environment (available on the World Wide Web at R-project.org/) by using ‘hexbin’ and ‘ggplot2’ packages.
The screen generated end-point data for ‘overall luciferase yield’ and ‘viable cell density’ in each well. For each plate, the median value of the negative control wells was set as 100% and was used to normalize corresponding sample wells. The ‘overall luciferase yield’ and ‘viable cell density’ were exported as % of negative control and the median absolute deviation (MAD)-based z-score was calculated for each sample.

As for “99 (CCCGGAUACUUCUGAAGAATT; chemistry not given here; listed as Homo sapiens) [compound 99]”, the “Viable cell density (%)” value was determined as 75.879% and the “per cell luciferase yield (%)” value was determined as 227.884%.
The corresponding values for “110 (CAAUGAUUCUUACCCUCAATT; chemistry not given here; listed as Homo sapiens) [compound 110]” are 77.169% and 257.929%.
“53 (GAACAAAAUAGACCUCUUATT; chemistry not given here; listed as Homo sapiens) [compound 53]” registered a per_cell of 162.7 and a VIA of 101.9.
“65 (GCCUAGGAGUUAUCCUCUATT; chemistry not given here; listed as Homo sapiens) [compound 65]” came in with a per_cell of 137.6 and a VIA of 112.2.
Take “140 (GUCCGAGUGUGGUUCUGUATT; chemistry not given here; listed as Homo sapiens) [compound 140]”: the “Viable cell density (%)” value came to 85.820% and the “per cell luciferase yield (%)” value was found to be 180.401%.
“80 (CAAUGAUUCUUACCCUCAATT; chemistry not given here; listed as Homo sapiens) [compound 80]” registered a per_cell of 257.9 and a VIA of 77.17.
As to “207 (CGCUCACCAACAGCAGAAATT; chemistry not given here; listed as Homo sapiens) [compound 207]”, the “Viable cell density (%)” value was 102.629% and the “per cell luciferase yield (%)” value is on record as 146.756%.
In turn, “50 (GGAGGAAUCUCGAAUGCGATT; chemistry not given here; listed as Homo sapiens) [compound 50]” gave a per_cell of 173.3 and a VIA of 96.
Consider “177 (CUCUUAUGGUAACCAAUGATT; chemistry not given here; listed as Homo sapiens) [compound 177]”, for which the “Viable cell density (%)” value came out at 91.558% and the “per cell luciferase yield (%)” value is 160.246%.
Regarding “89 (GGAUCACGCAGCUCAAGAUTT; chemistry not given here; listed as Homo sapiens) [compound 89]”, the per_cell was 161.6 and the VIA was found to be 91.54.
With “202 (GGAUGACGAGCUGAACUUUTT; chemistry not given here; listed as Homo sapiens) [compound 202]”, the “Viable cell density (%)” value turned out to be 113.437% and the “per cell luciferase yield (%)” value was found to be 140.103%.
As to “41 (CAACAGUACUUACCGAUGUTT; chemistry not given here; listed as Homo sapiens) [compound 41]”, the per_cell amounted to 141.8 and the VIA was found to be 115.5.
Turning to “88 (GAGCAGAGAUCAUAACCAATT; chemistry not given here; listed as Homo sapiens) [compound 88]”, the per_cell was found to be 141.1 and the VIA came to 108.2.
Turning to “209 (GAACUUCACAAGUUCCUCATT; chemistry not given here; listed as Homo sapiens) [compound 209]”, the “Viable cell density (%)” value is on record as 84.418% and the “per cell luciferase yield (%)” value amounted to 228.634%.
The corresponding values for “101 (GUUCAUCCAUAAGUACAUUTT; chemistry not given here; listed as Homo sapiens) [compound 101]” are 83.129% and 238.606%.
On to “142 (AAGUCAACAUAGCCCGAAATT; chemistry not given here; listed as Homo sapiens) [compound 142]”, for which the “Viable cell density (%)” value turned out to be 111.487% and the “per cell luciferase yield (%)” value came to 145.707%.
For the substance “218 (GGACCUCCCUGUGAAUGAUTT; chemistry not given here; listed as Homo sapiens) [compound 218]”, the “Luciferase activity (%)” value came to 95.4%, the “Per cell luciferase yield (%)” value came out at 110.9% and the “Viable cell number (%)” value is recorded as 86.0%.
The matching figures for “227 (CGAUGAACAUGUUAGACAUTT; chemistry not given here; listed as Homo sapiens) [compound 227]”: 30.4%, 42.2% and 72.1%.
“138 (CCCUCCUACUAUUACCCGUTT; chemistry not given here; listed as Homo sapiens) [compound 138]”: the “Viable cell density (%)” value was 96.869% and the “per cell luciferase yield (%)” value stood at 162.999%.
On to “195 (UGAAGAUAAUCGAGAAAUATT; chemistry not given here; listed as Homo sapiens) [compound 195]”, for which the “Viable cell density (%)” value stood at 67.947% and the “per cell luciferase yield (%)” value worked out at 258.104%.
In turn, “87 (GGUGUAAUAAUGUCCUUUATT; chemistry not given here; listed as Homo sapiens) [compound 87]” had a per_cell of 188.1 and a VIA of 79.39.
For “199 (CUAACUACCCAGACCCUUATT; chemistry not given here; listed as Homo sapiens) [compound 199]”, the “Viable cell density (%)” value came to 88.359% and the “per cell luciferase yield (%)” value worked out at 164.639%.
On to “156 (GAUUAUCCUUGUACUUUGATT; chemistry not given here; listed as Homo sapiens) [compound 156]”, for which the “Viable cell density (%)” value is on record as 101.904%, the “per cell luciferase yield (%)” value is on record as 141.842%, the “Luciferase activity (%)” value amounted to 144.5% and the “Per cell luciferase yield (%)” value was found to be 141.8%. Moreover, the “Viable cell number (%)” value is 101.9%.
For the substance “192 (GCAUCUGUCCGAUCGCUCUTT; chemistry not given here; listed as Homo sapiens) [compound 192]”, the “Viable cell density (%)” value is on record as 105.514% and the “per cell luciferase yield (%)” value is recorded as 143.889%.
On to “228 (GCCCUCUGUUGGAUAUCUATT; chemistry not given here; listed as Homo sapiens) [compound 228]”, for which the “Luciferase activity (%)” value is recorded as 45.6%, the “Per cell luciferase yield (%)” value stood at 63.2% and the “Viable cell number (%)” value worked out at 72.1%.
As to “127 (CCAACUACCUGAACGAUGATT; chemistry not given here; listed as Homo sapiens) [compound 127]”, the “Viable cell density (%)” value was determined as 54.133% and the “per cell luciferase yield (%)” value came to 311.348%.
For the substance “48 (GCAAUGCUUGCAAAACUCATT; chemistry not given here; listed as Homo sapiens) [compound 48]”, the per_cell is 189.3 and the VIA is listed as 90.98.
For “95 (CAAGUCACCUGUUACCUCATT; chemistry not given here; listed as Homo sapiens) [compound 95]”, the “Viable cell density (%)” value came to 88.955% and the “per cell luciferase yield (%)” value worked out at 171.805%.
“49 (CGAAACUUGUCAACGGGAATT; chemistry not given here; listed as Homo sapiens) [compound 49]” yielded a per_cell of 179.2 and a VIA of 104.6.
On to “135 (CAGGUAGUGUAAGCCCUCATT; chemistry not given here; listed as Homo sapiens) [compound 135]”, for which the “Viable cell density (%)” value amounted to 66.872% and the “per cell luciferase yield (%)” value is on record as 302.994%.
The matching figures for “144 (GGAUCACGCAGCUCAAGAUTT; chemistry not given here; listed as Homo sapiens) [compound 144]”: 91.538% and 161.634%.
As to “174 (GCAAUGCUUGCAAAACUCATT; chemistry not given here; listed as Homo sapiens) [compound 174]”, the “Viable cell density (%)” value came out at 90.976% and the “per cell luciferase yield (%)” value was 189.252%.
With “179 (GUACCUGCGGGAUUACUCATT; chemistry not given here; listed as Homo sapiens) [compound 179]”, the “Viable cell density (%)” value amounted to 90.987% and the “per cell luciferase yield (%)” value is on record as 160.687%.
In the case of “172 (GGAUAUUGGAGGCUAGUCATT; chemistry not given here; listed as Homo sapiens) [compound 172]”, the “Viable cell density (%)” value is recorded as 289.677% and the “per cell luciferase yield (%)” value is 157.868%.
For the substance “222 (GACUUUCACUUCCGCCUUATT; chemistry not given here; listed as Homo sapiens) [compound 222]”, the “Luciferase activity (%)” value amounted to 74.3%, the “Per cell luciferase yield (%)” value is 84.7% and the “Viable cell number (%)” value is on record as 87.7%.
